Reference: US20250001107A1, “BREATH-POWERED NASAL DEVICES FOR TREATMENT OF TRAUMATIC BRAIN INJURY (TBI), INCLUDING CONCUSSION, AND METHODS” (Oragenics, Inc., priority 2021, published 2025)

Tests used:
lipophilicity = type: physicochemical
[1] = tested on: Animal models of concussion; test: animal models of concussion, behavioral pathology; type: in vivo
[2] = blood-brain barrier crossing
[3] = preclinical studies of neuroprotective effects; type: in vivo

CC(=O)[C@@H]1CCC2C3CCC4=CC(=O)CC[C@H]4C3CC[C@]21C (single isomer, unassigned) [ent-19-norprogesterone, ent-19-norpregn-4-ene-3,20-dione]
lipophilicity (lipophilicity): lipophilic | behavioral pathology associated with brain injury symptoms [1]: reduces the behavioral pathology associated with brain injury symptoms such as memory impairment, anxiety, and motor/sensory performance | crossing of the blood-brain barrier [2]: can easily cross the blood-brain barrier | neuroprotective effects compared to related neurosteroids [3]: equivalent, if not superior, neuroprotective effects compared to related neurosteroids
